# Measurements reported in ChEMBL document CHEMBL5584202, “Identification of benzothiazoles as novel PCSK9 inhibitors” (Bioorg Med Chem Lett, 2024).
# Activity calls are given as the source filed them. The rule behind the calls is not given here.
# Experiments:
# HepG2 [1] = test: Downregulation of LDLR protein level in human HepG2 cells by Western blotting analysis; assay type: functional, cell-based
# HepG2 [2] = test: Downregulation of PCSK9 protein level in human HepG2 cells by Western blotting analysis; assay type: functional, cell-based
smiles,measurement,setting,value
CC(C)(C)OC(=O)N1CCN(Cc2ccc3nc(NC(=O)c4ccc(S(=O)(=O)NCCC#N)cc4)sc3c2)CC1,Activity,HepG2 [1],Active
same,Activity,HepG2 [2],Active
